Measurements: patent US5753691A, “Agents for inhibiting the production of IL-1β and the release of TNFα” (Nisshin Flour Milling Co., Ltd., priority 1994, dated 1998)

How the values were obtained:
IL-1β = assay: Inhibition of IL-1β production in THP-1 cells stimulated with PMA and polyinosic acid (enzyme immunoassay); type: cell-based; settings: Homo sapiens, 3×10^6 cells/ml, compound 1 h, then PMA 2 μg/ml and polyinosic acid 200 μg/ml, 24 h, supernatant
Experimental: The pyrrolidinone derivatives of the present invention were evaluated for the activity to inhibit the production of IL-1β, in accordance with the following method.
(§1) Then, 12-o-tetradecanoylphorbol-13-acetate (PMA) and polyinosic acid were added to each well so as to provide final concentrations of 2 μg/ml and 200 μg/ml, respectively. […] After incubation, a supernatant was recovered from each well by means of Pipetteman available from Gilson Co., Ltd. Then, an amount of the IL-1β in the supernatant was assayed by means of the enzyme immunoassay kit available from Cayman Chemical Co., Ltd.
(§2) The results are summarized below, expressed in terms of IC50 values in μM unit, wherein the amount of IL-1β produced at the time of no addition of the pyrrolidinone derivative is defined as 100 and the concentration of each test compound of the present invention to inhibit 50% the IL-1β production is defined as IC50.

TNFα = assay: Inhibition of TNFα release from THP-1 cells stimulated with PMA and polyinosic acid (human TNFα ELISA); type: cell-based; settings: 3×10^6 cells/ml, compound 1 h, then PMA 2 μg/ml and polyinosic acid 200 μg/ml, 24 h, supernatant
Experimental: The pyrrolidinone derivatives of the present invention were evaluated for the activity to inhibit the release of TNFα, in accordance with the following method.
as §1, with “PMA” for “12-o-tetradecanoylphorbol-13-acetate (PMA)”, “An” for “Then, an”, “TNFα” for “the IL-1β”, “human TNFα ELISA” for “enzyme immunoassay”, “Genzyme” for “Cayman Chemical”
as §2, with “TNFα released” for “IL-1β produced”, “derivatives” for “derivative”, “TNFα release” for “IL-1β production”

| SMILES | IC50 (IL-1β) | IC50 (TNFα) | cytotoxicity (THP-1 cells) |
| --- | --- | --- | --- |
| O=C(C=Cc1ccc([N+](=O)[O-])cc1[N+](=O)[O-])N1CCCC1=O [Compound 10] |  |  | no cytotoxicity was found |
| COc1cccc(C=CC(=O)N2CCCC2=O)c1 [Compound 3] | 73 µM |  |  |
| COc1ccc(C=CC(=O)N2CCCC2=O)cc1 [Compound 4] | 73 µM |  |  |
| COc1ccccc1C=CC(=O)N1CCCC1=O [Compound 2] | 86 µM |  |  |
| O=C(C=Cc1cccnc1)N1CCCC1=O [Compound 13] | 48 µM | 30 µM |  |
| O=C(C=Cc1ccncc1)N1CCCC1=O [Compound 14] | 42 µM |  |  |
| COc1ccc(C=CC(=O)N2CCCC2=O)cc1OC [Compound 5] | 69 µM | 16 µM |  |

More lines, main results first:

| IC50 (IL-1β) | IC50 (TNFα) | SMILES | cytotoxicity (THP-1 cells) |
| --- | --- | --- | --- |
| 26 µM | 2.8 µM | O=C(C=Cc1ccccc1)N1CCCC1=O [Compound 1] |  |
| 1.4 µM | 4.6 µM | O=C(C=Cc1ccccn1)N1CCCC1=O [Compound 12] |  |
| 13 µM | 3 µM | O=C(C=Cc1ccc([N+](=O)[O-])cc1)N1CCCC1=O [Compound 9] |  |
